Consider 20 compounds from PubChem BioAssay (NCI).

Test systems include DLD-1 colon; DMS 114 small cell lung; DMS 273 small cell lung; HOP-18 NSCLC; LXFL 529 NSCLC; M19-MEL melanoma; SNB-78 CNS; XF 498 CNS; SN12K1 renal; RXF-631 renal.
Common to all, as to assay: NCI anticancer screen, dose series, 48 h

Several values for one entry are separate records, joined by “and”; a condition that tells them apart may be missing. Equal entries are not always repeated.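 Briefly, cells in 96-well plates were exposed to five compound concentrations for 48 h, and endpoints were estimated by linear interpolation. Abbreviation: GI50, concentration required for 50% inhibition of growth. TGI: concentration producing complete growth inhibition.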 Bounds are passed on as bounds.

Take `CN(C)c1n/c(=N/c2ncn[nH]2)ss1`: the TGI in the assay with DLD-1 colon, in the assay with DMS 114 small cell lung, with DMS 273 small cell lung, in the assay with HOP-18 NSCLC, in the assay on LXFL 529 NSCLC and in the assay on M19-MEL melanoma was above 100 µM each time. The TGI with SNB-78 CNS and with XF 498 CNS was above 100 µM throughout.

On to `Cn1c2c(c3ccccc31)CCN(CCCCN1CCN(c3cccc(Cl)c3)CC1)C2=O`, for which the TGI in the assay with DLD-1 colon is 25.1 µM; in the assay on DMS 114 small cell lung, 10.7 µM; in the assay with DMS 273 small cell lung, 22.9 µM; in the assay with HOP-18 NSCLC, above 100 µM; with LXFL 529 NSCLC, 23.7 µM; in the assay on M19-MEL melanoma, 25.5 µM. In addition, the TGI was determined as 27.8 µM in the assay on SNB-78 CNS and 28 µM with XF 498 CNS.

In the case of `Nc1nc(N)c2nc(CNc3ccc(C(=O)NC(CCCNC(=O)c4ccccc4C(=O)O)C(=O)O)cc3)cnc2n1` (stereo not drawn), the TGI in the assay on DLD-1 colon, in the assay on DMS 114 small cell lung, with DMS 273 small cell lung, in the assay with HOP-18 NSCLC, in the assay on LXFL 529 NSCLC and in the assay with M19-MEL melanoma was above 100 µM each time. The TGI with SN12K1 renal, in the assay on SNB-78 CNS and in the assay with XF 498 CNS was above 100 µM in each case. The GI50 in the assay on DMS 114 small cell lung was < 0.01 µM and 0.000327 µM; with HOP-18 NSCLC, 24.8 µM and 98 µM; with M19-MEL melanoma it was 0.122 µM.

Turning to `c1ccc(COCC2OC3c4ccccc4COC3C2OCc2ccccc2)cc1` (stereo not drawn), the TGI with DLD-1 colon, with DMS 114 small cell lung, with DMS 273 small cell lung, with HOP-18 NSCLC, with M19-MEL melanoma and in the assay on RXF-631 renal was above 100 µM in each case. Besides, the TGI with SNB-78 CNS was above 100 µM.

For the compound `O=C1C2c3[nH]c4ccccc4c3[C@@H]3CCCCC3C2C(=O)N1c1ccccc1` (stereo partly drawn), the TGI in the assay on DLD-1 colon was determined as 92.4 µM; in the assay with DMS 114 small cell lung it was 58.4 µM; in the assay with DMS 273 small cell lung it was 35.3 µM; with LXFL 529 NSCLC it was 39.6 µM; in the assay on M19-MEL melanoma, 34.8 µM; in the assay on RXF-631 renal, 34.2 µM. In addition, in the assay with SNB-78 CNS, the TGI is 72 µM.

For the compound `Cc1cc(C)c(S(=O)(=O)ONC(=O)OC(C)(C)C)c(C)c1`, the TGI in the assay on DLD-1 colon, with DMS 273 small cell lung, in the assay with LXFL 529 NSCLC, with M19-MEL melanoma, with RXF-631 renal and with SNB-78 CNS was above 100 µM each time. In the assay on XF 498 CNS, this compound gave a TGI above 100 µM.

For `COC(OC)[C@@H](C)[C@H](O)[C@](C)(O)C1OC(C)(C)OC(C(C)C=C(C)C)C1C` (stereo partly drawn), the TGI in the assay with DLD-1 colon, in the assay on DMS 114 small cell lung, in the assay on DMS 273 small cell lung, with HOP-18 NSCLC, with LXFL 529 NSCLC and with M19-MEL melanoma was above 100 µM each time. Further, the TGI with SNB-78 CNS and with XF 498 CNS was above 100 µM each time.

For the compound `CCOC(=O)NC(=O)c1cn(CCN2CCN(C(=O)CCCCCCCCCCNc3ncnc4nc[nH]c34)CC2)c(=O)[nH]c1=O`, the TGI with DLD-1 colon, with DMS 273 small cell lung, in the assay on HOP-18 NSCLC, in the assay with LXFL 529 NSCLC, with M19-MEL melanoma and in the assay on SNB-78 CNS was above 100 µM throughout.

With `O=C(NCCCCCCCCNC(=O)c1cccc2ccccc12)c1cccc2ccccc12`, the TGI with DLD-1 colon is above 100 µM; in the assay on DMS 114 small cell lung, above 100 µM; with DMS 273 small cell lung it was above 100 µM; with HOP-18 NSCLC, above 81.4 µM; in the assay with LXFL 529 NSCLC, above 100 µM; with M19-MEL melanoma it was above 100 µM. The TGI was above 82 µM in the assay with RXF-631 renal, 48.3 µM with SNB-78 CNS and 20.9 µM with XF 498 CNS.

For the compound `CCC(C(=O)[O-])C(=O)[O-].CCC(C(=O)[O-])C(=O)[O-].N.N.NCCCCCCN.[Pt+4].[Pt+4]`, the GI50 is 3.79 µM in the assay with DLD-1 colon; 8.32 µM with DMS 273 small cell lung; 4.92 µM in the assay on HOP-18 NSCLC; 2.37 µM with LXFL 529 NSCLC; 10.7 µM in the assay with SNB-78 CNS. Moreover, the TGI worked out at 13.9 µM with DLD-1 colon; 16.4 µM with DMS 273 small cell lung; 11.5 µM in the assay on HOP-18 NSCLC; 5.12 µM in the assay on LXFL 529 NSCLC; 29 µM in the assay on SNB-78 CNS.

Turning to `OC(c1ccccn1)C1CNc2ccccc21` (stereo not drawn), the TGI in the assay on DLD-1 colon, in the assay on DMS 114 small cell lung, in the assay on DMS 273 small cell lung, in the assay with LXFL 529 NSCLC, in the assay with M19-MEL melanoma and with SNB-78 CNS was above 100 µM in each case. Also, the TGI in the assay with XF 498 CNS is above 100 µM.

With `Cc1ccc2[nH]c3c(ncc4[nH]c5ccccc5c43)c2c1`, the TGI worked out at 31 µM with DLD-1 colon; 31.3 µM with DMS 114 small cell lung; 28.1 µM in the assay with HOP-18 NSCLC; 33.3 µM in the assay on LXFL 529 NSCLC; 32.6 µM in the assay on SNB-78 CNS; 35.8 µM in the assay with XF 498 CNS.

Turning to `COc1cc(-c2cc(=O)c3cc(C)c(C)c(C(=O)O)c3o2)cc(OC)c1OC`, the TGI with DLD-1 colon, with DMS 114 small cell lung, in the assay with DMS 273 small cell lung, in the assay on LXFL 529 NSCLC, with M19-MEL melanoma and with RXF-631 renal was above 100 µM in each case. The TGI in the assay with SNB-78 CNS and with XF 498 CNS was above 100 µM throughout.

Regarding `COC12CC(=O)C(C(C)=O)=C(O)C1(C)c1c(OC(C)=O)c(C)c(O)c(C(C)=O)c1O2` (stereo not drawn), the TGI was above 100 µM in the assay with DMS 114 small cell lung; 51.9 µM with HOP-18 NSCLC; above 100 µM with LXFL 529 NSCLC; above 100 µM with M19-MEL melanoma; above 100 µM with RXF-631 renal; above 100 µM in the assay with SNB-78 CNS. Also, in the assay on XF 498 CNS, the TGI amounted to 70.7 µM.

Take `CC1=C(c2cc(C(=O)Nc3cccc(C(F)(F)F)c3)ncn2)Sc2ccccc2N1`: the TGI with DLD-1 colon, with DMS 114 small cell lung, with DMS 273 small cell lung, in the assay on HOP-18 NSCLC, in the assay with LXFL 529 NSCLC and with M19-MEL melanoma was above 100 µM throughout. The compound further showed a TGI with XF 498 CNS above 100 µM.

In the case of `O=C(CC(=O)C1CCOC1=O)C(=O)Nc1ccc(Cl)cc1Cl` (stereo not drawn), the TGI with DLD-1 colon, in the assay on DMS 114 small cell lung, in the assay with DMS 273 small cell lung, in the assay with LXFL 529 NSCLC, with M19-MEL melanoma and in the assay on SNB-78 CNS was above 100 µM each time. This compound also showed a TGI in the assay on XF 498 CNS above 100 µM.

With `O=C(NNC(=O)c1cc(/C=C/c2cccc([N+](=O)[O-])c2)[nH]c(=S)n1)Nc1ccc(Cl)cc1`, the TGI was 47.8 µM in the assay with DLD-1 colon; 97.4 µM in the assay on DMS 114 small cell lung; above 100 µM in the assay on DMS 273 small cell lung; above 100 µM in the assay with HOP-18 NSCLC; above 100 µM in the assay on LXFL 529 NSCLC; above 100 µM with M19-MEL melanoma. For the same compound, the TGI was above 100 µM in the assay on SNB-78 CNS and 81.4 µM in the assay on XF 498 CNS.

For the compound `CCC[CH2][Sn]([CH2]CCC)([O]C(=O)C1CCC(=O)N1)[O]C(=O)C1CCC(=O)N1` (stereo not drawn), the GI50 in the assay with DLD-1 colon is 0.353 µM; in the assay on DMS 114 small cell lung, 0.168 µM; with DMS 273 small cell lung, 0.336 µM; in the assay on LXFL 529 NSCLC it was 0.0498 µM; with M19-MEL melanoma, 0.244 µM; in the assay with RXF-631 renal it was 0.159 µM. The results for the GI50 with SNB-78 CNS and with XF 498 CNS were 0.26 µM and 0.217 µM, respectively. Also, the TGI in the assay on DLD-1 colon stood at 1.52 µM; in the assay with DMS 114 small cell lung it was 0.367 µM; in the assay with DMS 273 small cell lung, 1.16 µM; in the assay with LXFL 529 NSCLC, 0.188 µM; with M19-MEL melanoma it was 0.824 µM; with RXF-631 renal, 0.297 µM. Further, the results for the TGI in the assay on SNB-78 CNS and in the assay with XF 498 CNS were 0.759 µM and 0.376 µM, respectively.

`Cc1ccc(C)c(NC(=O)CCc2nc(=S)[nH][nH]2)c1`: the TGI in the assay with DLD-1 colon, in the assay on DMS 114 small cell lung, in the assay on DMS 273 small cell lung, in the assay on HOP-18 NSCLC, in the assay on LXFL 529 NSCLC and with M19-MEL melanoma was above 100 µM throughout. Moreover, the TGI in the assay with RXF-631 renal, with SNB-78 CNS and in the assay on XF 498 CNS was above 100 µM in each case.

With `O=C1/C(=C/c2ccccc2)CN(C(=O)OCc2ccccc2)C/C1=C\c1ccccc1`, the GI50 with DLD-1 colon was 4.14 µM; with DMS 114 small cell lung it was 4.26 µM; in the assay with DMS 273 small cell lung, 2.62 µM; in the assay on M19-MEL melanoma it was 2.01 µM. For the same compound, the TGI with DLD-1 colon was 14.2 µM; in the assay with DMS 114 small cell lung, 21 µM; in the assay on DMS 273 small cell lung, 14.3 µM; in the assay on M19-MEL melanoma it was 7 µM and 13.6 µM; with RXF-631 renal, above 31.6 µM; in the assay with SNB-78 CNS, 25.4 µM. In addition, the TGI with XF 498 CNS was above 31.6 µM.
